{"source": "patent US20160136160A1", "about": "“METHOD FOR PREVENTING AND/OR TREATING CHRONIC TRAUMATIC ENCEPHALOPATHY-II” (priority 2013, published 2016)", "system": "tau phosphorylation", "assay": "Tau phosphorylation after concussive injury in the rat (immunohistology for phosphorylated tau)", "type": "in vivo", "conditions": "rat concussion model; 1 mg/kg intravenously at 30 minutes after induction of injury; assessed at 3 day time point", "from_the_text": "Note that concussive injury in the rat causes extensive tau phosphorylation (B) by 3 days after the concussive event compared to non-injured animals (A).\nHaving established that hyperphosphorylated tau accumulates perivascularly following concussive injury, we used an animal model of concussion to investigate whether concussion causes perivascular release of substance P. We developed a rodent model of concussion to replicate the concussive event (Donkin et al., 2004, 7th International Neurotrauma Symposium, pp 75-78, Medimond Publishers, Bologna, Italy) and subsequently determined whether substance P was released after such an event. There was a clear increase in brain perivascular substance P immunoreactivity after the concussive event (FIG. 2).\nHaving shown that mechanical injury causes release of substance P after concussive injury, we then investigated whether a compound of formula (I) reduces tau hyperphosphorylation after concussive injury. […] Note that concussive injury in the rat causes extensive tau phosphorylation (B) by 3 days after the concussive event compared to non-injured animals (A). […] Thus, administration of a compound of formula (I″) prevents tau hyperphosphorylation and thus prevents the development of CTE.", "data": [{"molecule": "Cc1ccccc1-c1cc(N2CCN(C)CC2)ncc1C(=O)N(C)Cc1cc(C(F)(F)F)cc(C(F)(F)F)c1", "note": "[formula (I″)]", "values": [{"measurement": "effect on tau phosphorylation after concussive injury", "value": "almost complete inhibition of tau phosphorylation"}]}]}
